Results published in patent US20020143047A1, “Methods for treating indomethacin responsive headaches” (priority 2001, published 2002).

System: patient suffering from hemicrania continua and ulceritive colitis
Assay: Clinical treatment of a patient with hemicrania continua: topical indomethacin patch, and prior oral indomethacin
Type: in vivo, human
Description: Typically, the symptom ameliorated by the subject methods is pain associated with the syndrome being treated. In many embodiments, the intensity of pain associated with the syndrome is at least reduced, if not eliminated. Reduction in pain intensity is evaluated according to the protocol described at pages 161-176, and particularly page 172, of “Guidelines for Controlled Trials of Drugs in Cluster Headache,” published by the International Headache Society Committee on Clinical Trials in Cluster Headache. The magnitude of reduction in pain intensity is generally at least about 10%, usually at least about 25% and more usually at least about 50%, where magnitude of reduction may be as high as 75%, 80%, 95% or higher, including a complete cessation of pain, as determined by the assay described above.
The topical formulation described in I, above, was employed to treat a patient suffering from hemicrania continua and ulceritive colitis. The patient suffered from a six-year history of constant right-sided hemicranial pain of mild to moderate severity. Superimposed exacerbations of more intense pain occurred twice weekly and would last up to twelve hours. These painful exacerbations were associated with ipsilateral ptosis, conjunctival injection and lacrimation.
The patient was then treated with the topical application of indomethacin described in I, above, by applying the topical application to the site of maximal pain, i.e. the right forehead and temple. […] The patient was then instructed to reapply the patch twice daily, at twelve hour intervals. […] This was a favorable result compared with other forms of treatment that the patient had previously employed, whereas despite appropriate therapy, the patient's other medical condition worsened in response to oral administration of indomethacin.

[1] = prior treatment, 25 mg, three times daily

## COc1ccc2c(c1)c(CC(=O)O)c(C)n2C(=O)c1ccc(Cl)cc1 [indomethacin, Indomethacin]
Decreased dosage
  effect on gastrointestinal symptoms: continued to aggravate the gastrointestinal symptoms
  effect on headache syndrome: did not abolish the headache syndrome
[1]
  effect on pain: complete resolution of pain
  effect on patient's ulcerative colitis: significant worsening
